The source made the active and inactive calls. No cut-off for these calls is given here.
Legend:
[1] = organism: Homo sapiens; assay: Binding affinity to 15N-labeled 6His-tagged RING1B (10 to 116 residues)/PCGF1 (30 to 138 residues) (unknown origin) assessed as chemical shift perturbation by 1H-15N HSQC spectra based NMR titration analysis; details: dose 30-120 µM
[2] = Inhibition of RING1B (10 to 116 residues)/PCGF1 (30 to 138 residues)(unknown origin) using HeLa nucleosome as substrate assessed as reduction in reduction in H2AK119 ubiquitination preincubated with compound for 1 hrs followed by flag-tagged ubiquitin and substrate addition and measured after 1 hrs by Western blot analysis; set-up: species or system Homo sapiens
[3] = Binding affinity to RING1B (10 to 116 residues)/PCGF1 (30 to 138 residues) (unknown origin) assessed as dissociation constant by ITC analysis; set-up: species or system Homo sapiens
[4] = (§1) Inhibition of RING1A (7 to 113 residues)/BMI1 (1 to 104 residues) (unknown origin) extracted from Escherichia coli BL21 (DE3) cells using HeLa nucleosome as substrate assessed as reduction in reduction in H2AK119 ubiquitination preincubated with compound for 1 hrs followed by flag-tagged ubiquitin and substrate addition and measured after 1 hrs by Western blot analysis; set-up: species or system Homo sapiens
[5] = test system: TEX; assay: Inhibition of PRC1 in human TEX cells assessed as decrease in global H2Aub level by measuring fold change at 12.5 uM incubated for 4 days by Western blot analysis (reference value: 1); format: cell-based; details: time 4.0 day
[6] = Binding affinity to RING1A (7 to 113 residues)/BMI1 (1 to 104 residues) (unknown origin) extracted from Escherichia coli BL21 (DE3) cells assessed as dissociation constant by ITC analysis; set-up: species or system Homo sapiens
[7] = organism: Homo sapiens; assay: Binding affinity to 15N-labeled RING1B (10 to 116 residues)/BMI1 (1 to 104 residues) (unknown origin) extracted from Escherichia coli BL21 (DE3) cells assessed as ratio of chemical shift perturbations at 1:2 compound concentration ration by NMR binding analysis
[8] = test system: TEX; assay: Upregulation of CEBPalpha gene expression in human TEX cells at 6.2 to 50 uM incubated for 4 days by RT-qPCR analysis; format: functional, cell-based; details: dose 6.2-50 µM, time 4.0 day
[9] = organism: Homo sapiens; assay: Binding affinity to 15N-labeled RING1B (10 to 116 residues)/BMI1 (1 to 104 residues) (unknown origin) extracted from Escherichia coli BL21 (DE3) cells assessed as sum of A79, G83 and T89 chemical shift perturbations at 200 uM by NMR binding analysis
[10] = organism: Homo sapiens; assay: Binding affinity to 15N-labeled RING1A (7 to 113 residues)/BMI1 (1 to 104 residues) (unknown origin) extracted from Escherichia coli BL21 (DE3) cells assessed as chemical shift perturbation by 1H-15N HSQC spectra based NMR titration analysis; details: dose 30-120 µM
[11] = Binding affinity to RING1B (10 to 116 residues)/BMI1 (1 to 104 residues) (unknown origin) extracted from Escherichia coli BL21 (DE3) cells assessed as dissociation constant by ITC analysis; set-up: species or system Homo sapiens
[12] = test system: TEX; assay: Inhibition of PRC1 in human TEX cells assessed as decrease in global H2Aub level by measuring fold change at 6.2 uM incubated for 4 days by Western blot analysis (reference value: 1); format: cell-based; details: time 4.0 day
[13] = as §1, with “RING1B (10” for “RING1A (7”, “116 residues)-BMI1” for “113 residues)/BMI1”; set-up: species or system Homo sapiens
[14] = (§2) Inhibition of 6His-tagged RING1B (10 to 116 residues)/BMI1 (1 to 104 residues) (unknown origin) extracted from Escherichia coli BL21 (DE3) cells preincubated with compound for 1 hrs followed by 3-(1-(4,26-dioxo-30-((3aS,4S,6aR)-2-oxohexahydro-1H-thieno[3,4-d]imidazol-4-yl)-7,10,13,16,19,22-hexaoxa-3,25-diazatriacontyl)-6-methoxy-1H-indol-4-yl)-5-(6-fluoro-1H-indol-4-yl)-4-isopropyl-1H-pyrrole-2-carboxylic acid addition and measured after 1 hrs by Alphascreen competition assay; set-up: species or system Homo sapiens
[15] = as §2, with “RING1A (7” for “RING1B (10”, “113 residues)-BMI1” for “116 residues)/BMI1”; set-up: species or system Homo sapiens
[16] = organism: Homo sapiens; assay: Binding affinity to 15N-labeled RING1B (10 to 116 residues)/BMI1 (1 to 104 residues) (unknown origin) extracted from Escherichia coli BL21 (DE3) cells assessed as sum of A79, G83 and T89 chemical shift perturbations at 100 uM by NMR binding analysis
[17] = test system: TEX; assay: Downregulation of CD34 gene expression in human TEX cells at 6.2 to 50 uM incubated for 4 days by RT-qPCR analysis; format: functional, cell-based; details: dose 6.2-50 µM, time 4.0 day
[18] = test system: TEX; assay: Inhibition of PRC1 in human TEX cells assessed as decrease in global H2Aub level by measuring fold change at 3.1 uM incubated for 4 days by Western blot analysis (reference value: 1); format: cell-based; details: time 4.0 day
[19] = test system: TEX; assay: Inhibition of PRC1 in human TEX cells assessed as decrease in global H2Aub level by measuring fold change at 25 uM incubated for 4 days by Western blot analysis (reference value: 1); format: cell-based; details: time 4.0 day
[20] = organism: Homo sapiens; assay: Binding affinity to 15N-labeled RING1B (10 to 116 residues)/BMI1 (1 to 104 residues) (unknown origin) extracted from Escherichia coli BL21 (DE3) cells assessed as chemical shift perturbation by 1H-15N HSQC spectra based NMR titration analysis; details: dose 30-120 µM

Activity [1]: Dose-dependent-effect
IC50 [2]: 1800 nM
Kd [3]: 1700 nM
IC50 [4]: 2600 nM
Ratio [7]: 0.83
Activity [9]: 299 Hz
Activity [10]: Dose-dependent-effect
IC50 [13]: 2800 nM
IC50 [14]: 2300 nM
IC50 [15]: 2400 nM
Activity [16]: 248 Hz
Activity [20]: Dose-dependent-effect
SMILES: CC(C)c1c(-c2cc(F)cc3[nH]ccc23)[nH]c(C(=O)O)c1-c1c(Cl)ccc2[nH]ccc12
fold change (FC) [5]: 0.88
Kd [6]: 1700 nM
Activity [8]: Active
Kd [11]: 2000 nM
fold change (FC) [12]: 0.9
Activity [17]: Active
fold change (FC) [18]: 1.7
fold change (FC) [19]: 0.17

Reference: ChEMBL document CHEMBL6096680, “Development of PRC1 Inhibitors Employing Fragment-Based Approach and NMR-Guided Optimization” (J Med Chem, 2025)
